# Data reported in patent US5087573A, “Monoclonal antibody against bone alkaline phosphatase” (University of Kansas, priority 1988, dated 1992).
# Biological target: T1, purified alkaline phosphatase from human osteosarcoma (bone isoenzyme) (Homo sapiens, UniProt P05186)
# T1 construct: Human Osteosarcoma obtained from nude mice (nu/nu) was frozen at -70° C. until required; from tissue; host or cells: human osteosarcoma tumour tissue obtained from nude mice (nu/nu); enzyme purified by n-butanol extraction, acetone and ammonium sulfate precipitation, Bio Gel-HT, DEAE Sepharose and Sephacryl S-400
# T1 sequence (P05186 18-502 limits assumed): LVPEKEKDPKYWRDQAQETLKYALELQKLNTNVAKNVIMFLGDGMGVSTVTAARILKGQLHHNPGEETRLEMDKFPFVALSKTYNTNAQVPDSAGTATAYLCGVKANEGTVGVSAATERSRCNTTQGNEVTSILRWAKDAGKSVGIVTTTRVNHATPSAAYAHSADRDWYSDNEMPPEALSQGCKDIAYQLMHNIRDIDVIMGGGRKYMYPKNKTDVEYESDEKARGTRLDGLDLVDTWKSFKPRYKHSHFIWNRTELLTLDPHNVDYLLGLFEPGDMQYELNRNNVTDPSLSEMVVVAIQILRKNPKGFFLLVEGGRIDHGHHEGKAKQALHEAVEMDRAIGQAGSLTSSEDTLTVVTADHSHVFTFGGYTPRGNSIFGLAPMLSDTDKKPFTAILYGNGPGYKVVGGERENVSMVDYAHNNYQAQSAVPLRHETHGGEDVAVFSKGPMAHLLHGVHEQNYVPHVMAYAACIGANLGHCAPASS
# Test: Inhibition of alkaline phosphatase by amino acids (release of p-nitrophenol from p-nitrophenylphosphate)
# Type: biochemical
# Conditions: amino acid at 5 mM in the reaction mixture; 4 mM p-nitrophenylphosphate, pH 10.2
# Experimental: The enzyme was assayed by measuring the release of p-nitrophenol from p-nitro-phenylphosphate at ambient temperature using a Gilford (model 250) recording spectrophotometer. The assay mixture (0.5 ml) contained 0.3M 2-amino-2-methyl-1-propanol, pH 10.2, 4 mM p-nitrophenylphosphate, 20 ug MgCl2 and 10 ul of diluted enzyme (u=micro). The formation of p-nitrophenol was measured spectrophotometrically at 410 nm. Units represent u moles of p-nitrophenol formed per minute at 22° C.
# In order to define more clearly the isoenzyme, inhibition studies using amino acids were applied to the enzyme samples. The assay was carried out in the presence of L-homoarginine or L-phenylalanine at 5 mM concentration in the reaction mixtures respectively.
# Based on the sensitivity to heat inactivation and inhibitions by L-homoarginine and L-phenylalanine, the properties of alkaline phosphatase from human osteosarcoma are consistent with those of the bone isoenzyme. It is generally considered in the art that the ALP from normal bone and osteosarcoma are probably identical.
row,Structure (SMILES),inhibition at 5000 µM [%]
1,N=C(N)NCCCC[C@H](N)C(=O)O [L-homoarginine],64
2,N[C@@H](Cc1ccccc1)C(=O)O [L-phenylalanine],5
